Assay results from US20220298135A1, “5-HETEROARYL-PYRIDIN-2-AMINE COMPOUNDS AS NEUROPEPTIDE FF RECEPTOR ANTAGONISTS” (Domain Therapeutics, priority 2019, published 2022).

Columns and labels:
[1] = molecular target: T1, human NPFFR1 (hNPFFR1) receptor (Homo sapiens, UniProt Q9GZQ6); test: Human NPFFR1 evaluation using BRET biosensors (antagonist IC50); type: cell-based; conditions: hNPFFR1 transiently over-expressed in HEK-293 T cells; BRET signal; stimulation by EC80 RFRP-3
T1 construct: expressed in transfected cells; host or cells: HEK-293 T cells, transient co-transfection with polyethylenimine
T1 sequence (Q9GZQ6 whole entry): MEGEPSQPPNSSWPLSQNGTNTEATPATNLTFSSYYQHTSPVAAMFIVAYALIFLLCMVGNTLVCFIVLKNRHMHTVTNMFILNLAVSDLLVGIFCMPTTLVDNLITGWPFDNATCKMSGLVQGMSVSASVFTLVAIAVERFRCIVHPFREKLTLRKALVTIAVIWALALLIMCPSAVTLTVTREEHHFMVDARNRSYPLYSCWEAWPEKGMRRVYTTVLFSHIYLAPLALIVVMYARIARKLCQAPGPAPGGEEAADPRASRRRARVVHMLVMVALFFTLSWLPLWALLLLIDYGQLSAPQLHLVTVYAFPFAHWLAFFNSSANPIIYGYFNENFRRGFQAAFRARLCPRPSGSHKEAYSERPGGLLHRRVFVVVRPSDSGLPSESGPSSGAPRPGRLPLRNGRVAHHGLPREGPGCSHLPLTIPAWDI
In short: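 HEK-293T cells co-transfected with receptor, GαoB and Gi-effector BRET biosensor pair, assayed 48 h later. Compound 10 min, then EC80 RFRP-3 with 10 min luminescence read; IC50 from 20-concentration variable-slope fit, duplicate, two independent experiments.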

IC50 [1] [nM] | melting point [°C] | Compound
< 100 | 95 to 110 | CCc1nc(N)ccc1-c1ccccc1-c1ccc(N2CCOCC2)nc1.Cl [Example 84, 6-ethyl-5-(2-(6-morpholinopyridin-3-yl)phenyl)pyridin-2-amine]
< 100 | 110 to 150 | CCc1nc(N)ccc1-c1cccc2ccc(C)nc12.Cl [Example 90, 6-ethyl-5-(2-methylquinolin-8-yl)pyridin-2-amine]
100 to 1000 | > 250 | CCc1nc(N)ccc1-c1cccc2c(C)ccnc12.Cl [Example 91, 6-ethyl-5-(4-methylquinolin-8-yl)pyridin-2-amine]
100 to 1000 | 200 to 250 | CCc1nc(N)ccc1-c1cccc2ccc(N)nc12.Cl.Cl [Example 92, 8-(6-amino-2-ethylpyridin-3-yl)quinolin-2-amine]
< 100 | 35 to 70 | CCOc1ccc2cccc(-c3ccc(N)nc3CC)c2n1.Cl [Example 94, 5-(2-ethoxyquinolin-8-yl)-6-ethylpyridin-2-amine]
< 100 | > 250 | CCc1nc(N)ccc1-c1cccc2cc(C)cnc12.Cl [Example 95, 6-ethyl-5-(3-methylquinolin-8-yl)pyridin-2-amine]
< 100 | 210 to 245 | CCc1nc(N)ccc1-c1cccc2cc(F)cnc12.Cl [Example 97, 6-ethyl-5-(3-fluoroquinolin-8-yl)pyridin-2-amine]
< 100 | 90 to 130 | CCc1nc(N)ccc1-c1cccc2ccc(C(F)(F)F)nc12.Cl [Example 99, 6-ethyl-5-(2-(trifluoromethyl)quinolin-8-yl)pyridin-2-amine]
< 100 | 160 to 172 | CCc1nc(N)ccc1-c1cccc2cc3c(nc12)CCCC3.Cl [Example 113, 6-ethyl-5-(5,6,7,8-tetrahydroacridin-4-yl)pyridin-2-amine]
100 to 1000 | 197 to 211 | CCc1nc(N)ccc1-c1cccc2cc3c(nc12)CCN(C)C3.Cl.Cl [Example 114, 6-ethyl-5-(2-methyl-1,2,3,4-tetrahydrobenzo[b][1,6]naphthyridin-6-yl)pyridin-2-amine]
< 100 | 153 to 169 | CCc1nc(N)ccc1-c1cccc2cc3c(nc12)CCC3.Cl [Example 115, 5-(2,3-dihydro-1H-cyclopenta[b]quinolin-5-yl)-6-ethylpyridin-2-amine]
< 100 | 137 to 142 | CCc1nc(N)ccc1-c1cccc2ccc(C3CCCCC3)nc12.Cl [Example 118, 5-(2-cyclohexylquinolin-8-yl)-6-ethylpyridin-2-amine]
< 100 | 111 to 116 | CCc1nc(N)ccc1-c1cccc2ccc(-c3ccccn3)nc12.Cl [Example 119, 6-ethyl-5-(2-(pyridin-2-yl)quinolin-8-yl)pyridin-2-amine]
100 to 1000 | 90 to 95 | CCc1nc(N)ccc1-c1cccc2ccc(C3(C)CC3)nc12.Cl [Example 120, 6-ethyl-5-(2-(1-methylcyclopropyl)quinolin-8-yl)pyridin-2-amine]
< 100 | 175 to 185 | CCc1nc(N)ccc1-c1cccc2ccc(C3CCOCC3)nc12.Cl [Example 121, 6-ethyl-5-(2-(tetrahydro-2H-pyran-4-yl)quinolin-8-yl)pyridin-2-amine]
< 100 | > 250 | CCc1nc(N)ccc1-c1cccc2ccc(-c3ccncc3)nc12.Cl [Example 122, 6-ethyl-5-(2-(pyridin-4-yl)quinolin-8-yl)pyridin-2-amine]
< 100 | 70 to 75 | CCc1nc(N)ccc1-c1cccc2ccc(-c3ccc4nccn4c3)nc12.Cl [Example 123, 6-ethyl-5-(2-(imidazo[1,2-a]pyridin-6-yl)quinolin-8-yl)pyridin-2-amine]
< 100 | 178 to 182 | CCc1nc(N)ccc1-c1cccc2ccc(-c3cnoc3)nc12 [Example 125, 6-ethyl-5-(2-(isoxazol-4-yl)quinolin-8-yl)pyridin-2-amine]
< 100 | > 250 | CCc1nc(N)ccc1-c1cccc2ccc(-c3cnccn3)nc12.Cl [Example 126, 6-ethyl-5-(2-(pyrazin-2-yl)quinolin-8-yl)pyridin-2-amine]
< 100 | 180 to 188 | CCc1nc(N)ccc1-c1cccc2ccc(-c3cnccc3C)nc12.Cl [Example 127, 6-ethyl-5-(2-(4-methylpyridin-3-yl)quinolin-8-yl)pyridin-2-amine]

The remaining lines, values behind:

Compound | IC50 [1] [nM] | melting point [°C]
CCc1nc(N)ccc1-c1ccccc1-c1ccc(N2CCCCC2)nc1.Cl [Example 80, 6-ethyl-5-(2-(6-(piperidin-1-yl)pyridin-3-yl)phenyl)pyridin-2-amine] | 100 to 1000 | 50 to 80
CCc1nc(N)ccc1-c1ccccc1-c1ccc(C(F)(F)F)nc1.Cl [Example 81, 6-ethyl-5-(2-(6-(trifluoromethyl)pyridin-3-yl)phenyl)pyridin-2-amine] | 100 to 1000 | > 250
CCc1nc(N)ccc1-c1ccc(F)cc1-c1ccc(N2CCOCC2)nc1.Cl [Example 82, 6-ethyl-5-(4-fluoro-2-(6-morpholinopyridin-3-yl)phenyl)pyridin-2-amine] | 100 to 1000 | 54 to 70
CCc1nc(N)ccc1-c1cc(F)ccc1-c1ccc(N2CCOCC2)nc1.Cl [Example 83, 6-ethyl-5-(5-fluoro-2-(6-morpholinopyridin-3-yl)phenyl)pyridin-2-amine] | 100 to 1000 | 85 to 100
CCc1nc(N)ccc1-c1ccccc1-c1cncc(C)c1.Cl [Example 85, 6-ethyl-5-(2-(5-methylpyridin-3-yl)phenyl)pyridin-2-amine] | 100 to 1000 | 120 to 150
CCc1nc(N)ccc1-c1ccccc1-c1ccc(F)nc1.Cl [Example 87, 6-ethyl-5-(2-(6-fluoropyridin-3-yl)phenyl)pyridin-2-amine] | 100 to 1000 | > 250
CCc1nc(N)ccc1-c1ccccc1-c1ccc(O)nc1.Cl [Example 88, 5-(2-(6-amino-2-ethylpyridin-3-yl)phenyl)pyridin-2-ol] | 100 to 1000 | 95 to 120
CCc1nc(N)ccc1-c1ccccc1-c1ccc(OC)nc1 [Example 89, 6-ethyl-5-(2-(6-methoxypyridin-3-yl)phenyl)pyridin-2-amine] | 100 to 1000 | 165 to 180
CCc1nc(N)ccc1-c1c(C)ccc2cccnc12.Cl [Example 93, 6-ethyl-5-(7-methylquinolin-8-yl)pyridin-2-amine] | < 100 | 90 to 130
CCc1nc(N)ccc1-c1ccc(C)c2cccnc12.Cl [Example 96, 6-ethyl-5-(5-methylquinolin-8-yl)pyridin-2-amine] | 100 to 1000 | > 250
CCc1nc(N)ccc1-c1c(OC)ccc2cccnc12.Cl [Example 98, 6-ethyl-5-(7-methoxyquinolin-8-yl)pyridin-2-amine] | < 100 | 230 to 250
CCc1nc(N)ccc1-c1nccc2cccnc12.Cl [Example 100, 6-ethyl-5-(1,7-naphthyridin-8-yl)pyridin-2-amine] | > 1000 | 160 to 200
CCc1nc(N)ccc1-c1cccc2nccnc12.Cl [Example 101, 6-ethyl-5-(quinoxalin-5-yl)pyridin-2-amine] | 100 to 1000 | > 250
CCc1nc(N)ccc1-c1cccn2ccnc12.Cl [Example 102, 6-ethyl-5-(imidazo[1,2-a]pyridin-8-yl)pyridin-2-amine] | > 1000 | 95 to 135
CCc1nc(N)ccc1-c1cccc2nccn12.Cl [Example 103, 6-ethyl-5-(imidazo[1,2-a]pyridin-5-yl)pyridin-2-amine] | > 1000 | 115 to 155
CCc1nc(N)ccc1-c1cccc2ccnn12.Cl [Example 104, 6-ethyl-5-(pyrazolo[1,5-a]pyridin-7-yl)pyridin-2-amine] | 100 to 1000 | 234 to 243
CCc1nc(N)ccc1-c1c(OC(F)F)ccc2cccnc12.Cl [Example 105, 5-(7-(difluoromethoxy)quinolin-8-yl)-6-ethylpyridin-2-amine] | < 100 | 120 to 160
CCc1nc(N)ccc1-c1cccc2c1NCCC2.Cl [Example 106, 6-ethyl-5-(1,2,3,4-tetrahydroquinolin-8-yl)pyridin-2-amine] | 100 to 1000 | 147 to 160
CCc1nc(N)ccc1-c1c(F)ccc2cc(-c3ccccc3)cnc12.Cl [Example 107, 6-ethyl-5-(7-fluoro-3-phenylquinolin-8-yl)pyridin-2-amine] | 100 to 1000 | > 250
CCc1nc(N)ccc1-c1c(F)cc(F)c2cccnc12.Cl [Example 108, 5-(5,7-difluoroquinolin-8-yl)-6-ethylpyridin-2-amine] | < 100 | 126 to 136
CCc1nc(N)ccc1-c1c(C(F)(F)F)ccc2cccnc12.Cl [Example 109, 6-ethyl-5-(7-(trifluoromethyl)quinolin-8-yl)pyridin-2-amine] | < 100 | 150 to 180
CCc1nc(N)ccc1-c1c(F)c(F)cc2cccnc12.Cl [Example 111, 5-(6,7-difluoroquinolin-8-yl)-6-ethylpyridin-2-amine] | < 100 | 150 to 190
CCc1nc(N)ccc1-c1c(F)c(F)cc2cc(O)cnc12.Cl [Example 112, 8-(6-amino-2-ethylpyridin-3-yl)-6,7-difluoroquinolin-3-ol] | 100 to 1000 | 204 to 210
